Measured values published in patent publication US20110207760A1, “SN-38 COMPOSITIONS” (priority 2010, published 2011).

Columns and labels:
[1] = tested on: Human Colon Carcinoma LoVo DX Cells; assay: Growth of subcutaneous solid tumor of LoVo DX cells in mice; type: in vivo, Balb/c mice; conditions: treated group, (SEM); for Tumor volume: SN-38 4.5 mg/kg in 20% SBECD i.p. twice daily; for Tumor volume increase: relative to day 0 of treatment
Source text: Lovo Dx cells (2.5×10^6 cells per an injection) in culture medium with 30% Matrigel were subcutaneously inoculated at 2 sides of the flank (in the mid-flank) of each of 15 Balb/c mice. 20 days after inoculation the animals were randomly divided into 2 groups: control (8 mice) and treated (7 animals). On day 21, 24, 27 and 30 after inoculation (days 1, 4, 7, and 10 of treatment), twice daily, at 10 am and at 4 pm, the animals received intraperitoneal injections. Control animals received each time injection of 0.49 mL of 0.9% saline. Treated animals received each time injection of SN-38 solution in 20% SBECD (w/w), 4.5 mg/kg of SN-38. The SN-38 solution for the treatment was prepared by the dilution of concentrated composition of the Example 1 with water. Tumor sizes and body weight of each animal was monitored during treatment. The results represented as average tumor volume estimated from measurements of tumor diameters (V=0.5*D1*D2*D2, where Dl and D2 are longer and shorter diameter of the tumor) are presented in Table 7 below (the standard error of mean is in parentheses).

topoisomerase I enzyme = target: T1, topoisomerase I enzyme (Homo sapiens, UniProt P11387); conditions: estimated; times more active than irinotecan; cited from earlier work
T1 sequence (P11387 1-765): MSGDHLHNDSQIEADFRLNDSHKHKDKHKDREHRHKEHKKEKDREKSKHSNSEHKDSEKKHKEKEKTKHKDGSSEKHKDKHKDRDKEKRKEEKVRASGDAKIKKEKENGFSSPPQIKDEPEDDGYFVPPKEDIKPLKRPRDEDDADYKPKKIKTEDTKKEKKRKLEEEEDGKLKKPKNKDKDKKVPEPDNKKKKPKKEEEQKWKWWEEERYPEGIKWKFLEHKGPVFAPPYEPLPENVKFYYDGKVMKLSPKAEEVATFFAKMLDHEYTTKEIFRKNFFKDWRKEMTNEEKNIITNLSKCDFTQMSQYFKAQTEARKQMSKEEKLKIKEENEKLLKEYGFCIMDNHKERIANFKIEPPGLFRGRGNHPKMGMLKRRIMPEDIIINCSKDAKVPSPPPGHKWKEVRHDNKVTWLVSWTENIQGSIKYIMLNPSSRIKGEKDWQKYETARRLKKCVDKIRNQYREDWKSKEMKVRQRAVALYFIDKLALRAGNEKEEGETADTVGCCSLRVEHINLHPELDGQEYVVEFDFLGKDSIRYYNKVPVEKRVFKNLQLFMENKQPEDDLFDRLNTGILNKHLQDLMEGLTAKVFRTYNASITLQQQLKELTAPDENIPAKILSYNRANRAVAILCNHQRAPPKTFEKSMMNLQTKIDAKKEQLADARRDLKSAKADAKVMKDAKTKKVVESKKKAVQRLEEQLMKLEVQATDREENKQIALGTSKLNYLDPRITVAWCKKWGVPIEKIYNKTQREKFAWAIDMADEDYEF

**Q.** With `CCc1c2c(nc3ccc(O)cc13)-c1cc3c(c(=O)n1C2)COC(=O)[C@]3(O)CC` [SN-38, (4S)-4,11-Diethyl-4,9-dihydroxy-1H-pyrano[3′,4′:6,7]indolizino[1,2-b]quinoline-3,14(4H,12H)dione] as the compound, how does the Tumor volume ([1]; day 0 of treatment) read?
**A.** 0.123 (0.010) cm^3

**Q.** And the Tumor volume ([1]; day 4 of treatment)?
**A.** 0.128 (0.010) cm^3

**Q.** And the Tumor volume ([1]; day 6 of treatment)?
**A.** 0.140 (0.011) cm^3

**Q.** What about the Tumor volume ([1]; day 8 of treatment) of the same compound?
**A.** 0.142 (0.012) cm^3

**Q.** What about the Tumor volume ([1]; day 11 of treatment) of the same compound?
**A.** 0.163 (0.017) cm^3

**Q.** And the Tumor volume ([1]; day 13 of treatment)?
**A.** 0.185 (0.019) cm^3

**Q.** And the Tumor volume ([1]; day 15 of treatment)?
**A.** 0.195 (0.020) cm^3

**Q.** And the Tumor volume ([1]; day 18 of treatment)?
**A.** 0.217 (0.024) cm^3

**Q.** And the Tumor volume ([1]; day 20 of treatment)?
**A.** 0.284 (0.040) cm^3

**Q.** What about the Tumor volume ([1]; day 22 of treatment) of the same compound?
**A.** 0.349 (0.055) cm^3

**Q.** What about the Tumor volume increase ([1]; day 0) of the same compound?
**A.** 100 Percentage

**Q.** And the Tumor volume increase ([1]; day 4)?
**A.** 105 (4) Percentage

**Q.** What about the Tumor volume increase ([1]; day 6) of the same compound?
**A.** 115 (6) Percentage

**Q.** And the Tumor volume increase ([1]; day 8)?
**A.** 117 (7) Percentage

**Q.** What about the Tumor volume increase ([1]; day 11) of the same compound?
**A.** 133 (11) Percentage

**Q.** What about the Tumor volume increase ([1]; day 13) of the same compound?
**A.** 150 (10) Percentage

**Q.** And the Tumor volume increase ([1]; day 15)?
**A.** 157 (10) Percentage

**Q.** What about the Tumor volume increase ([1]; day 18) of the same compound?
**A.** 175 (12) Percentage

**Q.** What about the Tumor volume increase ([1]; day 20) of the same compound?
**A.** 224 (22) Percentage

**Q.** And the Tumor volume increase ([1]; day 22)?
**A.** 271 (29) Percentage

**Q.** What about the “activity relative to irinotecan” value (topoisomerase I enzyme) of the same compound?
**A.** up to 1000 times
